Data on one molecule can be found in BindingDB's records for doi:10.1021/jm980254j (Georgetown University Medical Center, 1998).

The IC50 is the concentration needed to halve the response being measured.

This assay has as its target phosphoinositide-specific phospholipase C (Bos taurus). The assay can be described thus: In vitro inhibitory activity against bovine Phosphoinositide specific phospholipase C (PI-PLC).

Molecule `CCCCCCCCCCCCCCCC(=O)OC[C@H](COP(=O)(O)OC1C(O)C(O)C(O)C(F)C1O)OC(=O)CCCCCCCCCCCCCCC` (stereo partly drawn) [Hexadecanoic acid (R)-2-[(3-fluoro-2,4,5,6-tetrahydroxy-cyclohexyloxy)-hydroxy-phosphoryloxy]-1-hexadecanoyloxymethyl-ethyl ester] came in with an IC50 of 8 µM.
